According to patent publication US20250186520A1, “ONCOLYTIC VIRUS COMPOSITIONS AND METHODS FOR THE TREATMENT OF CANCER” (priority 2020, published 2025):

Tests used:
[1] = target: T1, EGFR (wtEGFR U251T2 and EGFRvIII U87ΔEGFR GBM cells) (Homo sapiens, UniProt P00533); assay: EGFR binding assay and CCL5 expression assay by flow cytometry (anti-human Fc / anti-human CCL5)
T1 construct: U251T2 GBM cells, which express wild type EGFR (wtEGFR), U87ΔEGFR GBM cells, which express EGFRvIII; endogenous in cells; host or cells: U251T2 (wtEGFR) and U87ΔEGFR (EGFRvIII) human GBM cells
Protocol: (§1) U251T2, U87ΔEGFR, and A4780 cells were pre-blocked with 2% BSA and incubated with 1, 5, or 10 μg/ml purified Cmab-hCCL5 or 1, 5, or 10 μg/ml human IgG1 isotype control for 30 min. Murine CT2A-hEGFR cells were pre-blocked with 2% BSA and then incubated with 1, 5, or 10 μg/ml purified Cmab-mCCL5 or 1, 5, or 10 μg/ml human IgG1 isotype control for 30 min. After incubation, all cells were washed twice, and human cell lines were stained with APC-conjugated anti-human Fc (Jackson ImmunoResearch, cat #209-605-098) or APC-conjugated anti-human CCL5 (Biolegend, cat #515506, 149103) antibodies, whereas the murine CT2A-hEGFR cells were stained with APC-conjugated anti-human Fc or PE-conjugated anti-mouse CCL5 antibodies, for 20 min. The stained cells were analyzed using a Fortessa X20 flow cytometer (BD Biosciences).

[2] = tested on: EGFR (wtEGFR U251T2 and EGFRvIII U87ΔEGFR GBM cells); assay: as above; details: protein purified from CHO cells
Protocol: as §1

EGFR^− A2780 cells = assay: EGFR binding assay by flow cytometry on EGFR-negative cells; parameters: species or system human; details: protein purified from CHO cells; vs IgG1 isotype control
Protocol: as §1

[3] = tested on: human NK cells, macrophages, CD4^+ T cells, and CD8^+ T cells; assay: Transwell cell migration assay, human immune cells; format: cell-based; details: protein purified from CHO cells; vs IgG1 isotype control
Protocol: The migration capability of NK cells, T cells, and macrophages was determined using transwell chambers (Corning). Serum-starved NK cells, T cells or macrophages (10^6/well) were seeded to an upper chamber. Recombinant human (rh) CCL5, recombinant mouse (rm) CCL5, purified Cmab-hCCL5 or Cmab-mCCL5, or the supernatant containing Cmab-hCCL5 or Cmab-mCCL5 secreted from OV-Cmab-hCCL5- or OV-Cmab-mCCL5-infected U251T2 GBM cells was added to the lower chamber. The chambers were incubated at 37° C. in 5% CO2 for 12 h. Cells that migrated to the lower face of the porous membrane in the lower chamber were counted. For the T cells and NK cells, the pore size of the transwell membrane used in this assay was 3 μm as previously described (61,62). For the macrophages, the pore size of the transwell membrane used in this assay was […] as previously described (63).

[4] = tested on: U251T2 (wtEGFR), GBM30, Gli36ΔEGFR (EGFRvIII) GBM cells; assay: NK cell ADCC, 51Cr release assay, EGFR+ targets; format: cell-based, human; details: purified protein; wtEGFR and EGFRvIII tumor cells; vs IgG1 isotype control
Protocol: (§2) NK cell cytotoxicity was evaluated as previously described (13,64,65). Briefly, U251T2, GBM30, Gli36ΔEGFR, and CT2A-hEGFR cells were used as target cells. The target cells were labeled with ^51Cr for 1 h, followed by incubation with 5 μg/ml or 10 μg/ml of the Cmab-hCCL5 fusion protein or IgG1 isotype control for 30 min. The labeled target cells preincubated with the Cmab-hCCL5 fusion protein or IgG1 were co-cultured with isolated human primary NK cells at different effector:target ratios at 37° C. for 4 h. Release of ^51Cr was measured as counts per minute (cpm) with a MicroBeta(2) microplate radiometric counter (Perkin Elmer, Waltham, MA). […] The cell lysis percentages were calculated using the standard formula: 100×(cpm experimental release−cpm spontaneous release)/(cpm maximal release−cpm spontaneous release). […] The expression of CD69 and granzyme B, NK cell activation markers, were measured after 6-hour co-culture of NK cells and GBM30 cells with 5 μg/ml or 10 μg/ml of Cmab-hCCL5 at a ratio of 1:1 with a flow cytometer after the cells were stained with the anti-CD56 (BD, cat #557919) and anti-CD69 (BD, cat #562883) or anti-granzyme B (BD, cat #563388) antibodies. Following similar procedures, mouse CD69 was measured by an anti-CD69 (BD, cat #564683) antibody, and NK cells were marked by an anti-NKp46 (Biolegend, cat #137618) antibody.

[5] = tested on: human NK cells co-cultured with GBM30 cells; assay: NK cell activation assay (CD69, granzyme B by flow cytometry); format: cell-based; details: purified protein
Protocol: as §2

GBM30 cells = assay: Flow cytometry-based phagocytosis (ADCP) assay, human macrophages; format: cell-based; details: purified protein; vs IgG1 isotype control or vehicle
Protocol: For the phagocytosis assay of primary human macrophages, GBM30 cells stained with CFSE (Thermo Fisher, cat #C34554) were used as target cells. Human macrophages and target cells were co-cultured at a ratio of 1:2 for 6 hours with 5 μg/ml or 10 μg/ml of the Cmab-hCCL5 fusion protein or IgG1 isotype control in a humidified, 5% CO2 incubator at 37° C. in ultra-low-attachment 96-well U-bottom plates (Corning) in serum-free 1640 media (Life Technologies). The co-cultured cells were harvested by centrifuging at 400×g for 5 min at 4° C. and stained with an anti-human CD45 antibody (Biolegend, cat #368516) to identify macrophages. All flow cytometry data were collected using a Fortessa X20 flow cytometer (BD Biosciences). Phagocytosis was measured as the number of CD45^+CFSE^+ macrophages, quantified as a percentage of the total CD45^+ cells.

[6] = tested on: human macrophages co-cultured with GBM30 cells; assay: Quantitative PCR of human macrophage cytokine genes; format: cell-based; details: vs IgG1 isotype control
Protocol: For evaluating the effect of Cmab-hCCL5 on mRNA levels of typical human macrophage cytokine genes, human macrophages and GBM30 cells were co-cultured at a ratio of 1:1 for 6 hours with or without 5 μg/ml Cmab-hCCL5. The macrophages were stained with anti-human CD45 antibody and sorted using an Aria Fusion flow cytometer (BD Biosciences). The total RNA was extracted from the sorted macrophages for measuring the mRNA levels of human IL1B, IL6, IL12A, and NOS2 genes with their corresponding primers. 18s rRNA was used as an internal control.

Gli36ΔEGFR cells = assay: NK cell cytotoxicity (51Cr release) against TMZ-pretreated cells; format: cell-based, human
Protocol: TMZ, which is an imidazotetrazine that is converted to a compound capable of alkylating DNA, interferes with DNA replication and leading to cytotoxicity in proliferating cells, and has been in clinical trials for treating GBM. To detect whether OV-Cmab-CCL5 enhanced TMZ function for treating GBM, the combination therapy with OV-Cmab-CCL5 and TMZ in vivo and in vitro was performed. Gli36ΔEGFR cells were treated with 1 μM TMZ overnight, and the pretreated cells were ^51Cr-labeled and used as target cells. These cells were then incubated with 5 μg/ml Cmab-hCCL5 or vehicle for 30 min. The effector NK cells and target cells were then co-cultured at the ratios of 40:1, 20:1, and 10:1 for 4 hours and assayed for cytotoxicity. […] This function was also detected as induced by the supernatants from OV-Cmab-hCCL5-infected Gli36ΔEGFR cells. Consistent data were collected.

Molecule | secretion of cetuximab or CCL5, comparison of Cmab-CCL5 and reverse-order CCL5-Cmab ([1]; FIGS. 14C, 14D: flow cytometry on U251T2 with anti-Fc / anti-hCCL5) | binding to surface-expressed EGFR (anti-Fc and anti-CCL5 antibodies) ([1]; protein produced by OV-Cmab-hCCL5-infected U251T2 GBM cells) | CCL5 on cell surface (anti-CCL5 antibody) ([2]; EGFR^+ cells) | binding to tumor cells (anti-human Fc antibody) ([2]; U251T2 (wtEGFR) and U87ΔEGFR (EGFRvIII) cells) | binding to EGFR^− A2780 cells (anti-human Fc antibody) (EGFR^− A2780 cells) | migration of human NK cells, macrophages, CD4^+ and CD8^+ T cells [3] | NK cell ADCC [4] | CD69 expression on NK cells ([5]; 6 hours, vs IgG1 isotype control or GBM30 cells alone) | granzyme B expression in NK cells ([5]; relative to controls) | ADCP against GBM30 cells by human macrophages (GBM30 cells) | cytokine expression in human macrophages (real-time RT-PCR) [6] | NK cell cytotoxicity (Gli36ΔEGFR cells; 1 μM TMZ pre-treatment plus 5 μg/ml Cmab-hCCL5, vs either treatment alone) | NK cell cytotoxicity (Gli36ΔEGFR cells; 1 μM TMZ overnight pre-treatment alone)
Cmab-hCCL5: bispecific knob-into-hole human IgG1 Fc fusion protein: cetuximab scFv arm and human CCL5 arm | no difference | confirmed to bind to surface-expressed EGFR | detected CCL5 on EGFR^+ cell surfaces | selectively bound to tumor cells expressing wtEGFR or EGFRvIII | indistinguishable from that of IgG1 isotype control | dose-dependent increase in the migration | significantly induced NK cell ADCC | significantly increased the expression of CD69 | increased granzyme B expression | induced a significantly higher level of ADCP | significantly increased IL-1B, IL-6, IL-12, and NOS2 expression | significantly higher degree of NK cell cytotoxicity | –
Cn1nnc2c(C(N)=O)ncn2c1=O [TMZ, Temozolomide, reference compound] | – | – | – | – | – | – | – | – | – | – | – | – | enhanced NK cell cytotoxicity
